Experimental data as given in publication PMC9866191, “Novel 9-Benzylaminoacridine Derivatives as Dual Inhibitors of Phosphodiesterase 5 and Topoisomerase II for the Treatment of Colon Cancer” (Molecules, 2023).

Columns and labels:
CCD-966SK = assay: MTT cell proliferation assay, CCD-966SK; conditions: CCD966SK skin fibroblast; 10 µM; 72 h MTT
HCT-116 [1] = assay: MTT cell proliferation assay, HCT-116; conditions: for % Inhibition at 10 µM: 72 h MTT, means ± SD; for IC50: read-out: IC50 μM, 72 h MTT, means ± SD, three experiments
UO-31 = assay: NCI-60 one-dose screen; assay type: cell-based; conditions: Homo sapiens; UO-31, Renal Cancer panel; single dose 10^−5 M; read-out: Growth inhibition %
SNB-19 = assay: NCI-60 one-dose screen; assay type: cell-based; conditions: Homo sapiens; SNB-19, CNS Cancer panel; single dose 10^−5 M; read-out: Growth inhibition %
OVCAR-4 = assay: NCI-60 one-dose screen; assay type: cell-based; conditions: Homo sapiens; OVCAR-4, Ovarian Cancer panel; single dose 10^−5 M; read-out: Growth inhibition %
HT29 = assay: NCI-60 one-dose screen; assay type: cell-based; conditions: Homo sapiens, HT-29; HT29, Colon Cancer panel; single dose 10^−5 M; read-out: Growth inhibition %
MCF7 = assay: NCI-60 one-dose screen; assay type: cell-based; conditions: Homo sapiens; MCF7, Breast Cancer panel; single dose 10^−5 M; read-out: Growth inhibition %
OVCAR-5 = assay: NCI-60 one-dose screen; assay type: cell-based; conditions: Homo sapiens; OVCAR-5, Ovarian Cancer panel; single dose 10^−5 M; read-out: Growth inhibition %
TK-10 = assay: NCI-60 one-dose screen; assay type: cell-based; conditions: Homo sapiens; TK-10, Renal Cancer panel; single dose 10^−5 M; read-out: Growth inhibition %
MOLT-4 = assay: NCI-60 one-dose screen; assay type: cell-based; conditions: Homo sapiens; MOLT-4, Leukemia panel; single dose 10^−5 M; read-out: Growth inhibition %
NCI-H460 = assay: NCI-60 one-dose screen; assay type: cell-based; conditions: Homo sapiens; NCI-H460, Non-small cell lung panel; single dose 10^−5 M; read-out: Growth inhibition %
NCI-H322M = assay: NCI-60 one-dose screen; assay type: cell-based; conditions: Homo sapiens, Non-small cell lung panel, single dose 10^−5 M, read-out: Growth inhibition %
OVCAR-8 = assay: NCI-60 one-dose screen; assay type: cell-based; conditions: Homo sapiens; OVCAR-8, Ovarian Cancer panel; single dose 10^−5 M; read-out: Growth inhibition %
HCT-116 [2] = assay: NCI-60 one-dose screen; assay type: cell-based; conditions: Homo sapiens, read-out: Growth inhibition %
786-0 = assay: NCI-60 one-dose screen; assay type: cell-based; conditions: Homo sapiens; 786-0, Renal Cancer panel; single dose 10^−5 M; read-out: Growth inhibition %
MDA-MB-468 = assay: NCI-60 one-dose screen; assay type: cell-based; conditions: Homo sapiens; MDA-MB-468, Breast Cancer panel; single dose 10^−5 M; read-out: Growth inhibition %
NCI-H226 = assay: NCI-60 one-dose screen; assay type: cell-based; conditions: Homo sapiens; NCI-H226, Non-small cell lung panel; single dose 10^−5 M; read-out: Growth inhibition %
HS 578T = assay: NCI-60 one-dose screen; assay type: cell-based; conditions: Homo sapiens, Breast Cancer panel, single dose 10^−5 M, read-out: Growth inhibition %
BT-549 = assay: NCI-60 one-dose screen; assay type: cell-based; conditions: Homo sapiens; BT-549, Breast Cancer panel; single dose 10^−5 M; read-out: Growth inhibition %
UACC-62 = assay: NCI-60 one-dose screen; assay type: cell-based; conditions: Homo sapiens; UACC-62, Melanoma panel; single dose 10^−5 M; read-out: Growth inhibition %
HOP-62 = assay: NCI-60 one-dose screen; assay type: cell-based; conditions: Homo sapiens; HOP-62, Non-small cell lung panel; single dose 10^−5 M; read-out: Growth inhibition %
EKVX = assay: NCI-60 one-dose screen; assay type: cell-based; conditions: Homo sapiens, Non-small cell lung panel, single dose 10^−5 M, read-out: Growth inhibition %
RPMI-8226 = assay: NCI-60 one-dose screen; assay type: cell-based; conditions: Homo sapiens; RPMI-8226, Leukemia panel; single dose 10^−5 M; read-out: Growth inhibition %
NCI-H23 = assay: NCI-60 one-dose screen; assay type: cell-based; conditions: Homo sapiens; NCI-H23, Non-small cell lung panel; single dose 10^−5 M; read-out: Growth inhibition %
DU-145 = assay: NCI-60 one-dose screen; assay type: cell-based; conditions: Homo sapiens; DU-145, Prostate Cancer panel; single dose 10^−5 M; read-out: Growth inhibition %
PC-3 = assay: NCI-60 one-dose screen; assay type: cell-based; conditions: Homo sapiens; PC-3, Prostate Cancer panel; single dose 10^−5 M; read-out: Growth inhibition %
MALME-3M = assay: NCI-60 one-dose screen; assay type: cell-based; conditions: Homo sapiens, Melanoma panel, single dose 10^−5 M, read-out: Growth inhibition %
A549/ATCC = assay: NCI-60 one-dose screen; assay type: cell-based; conditions: Homo sapiens, Non-small cell lung panel, single dose 10^−5 M, read-out: Growth inhibition %
HL-60(TB) = assay: NCI-60 one-dose screen; assay type: cell-based; conditions: Homo sapiens, Leukemia panel, single dose 10^−5 M, read-out: Growth inhibition %
SF-539 = assay: NCI-60 one-dose screen; assay type: cell-based; conditions: Homo sapiens; SF-539, CNS Cancer panel; single dose 10^−5 M; read-out: Growth inhibition %
RXF 393 = assay: NCI-60 one-dose screen; assay type: cell-based; conditions: Homo sapiens; RXF 393, Renal Cancer panel; single dose 10^−5 M; read-out: Growth inhibition %
A498 = assay: NCI-60 one-dose screen; assay type: cell-based; conditions: Homo sapiens; A498, Renal Cancer panel; single dose 10^−5 M; read-out: Growth inhibition %
MDA-MB-231/ATCC = assay: NCI-60 one-dose screen; assay type: cell-based; conditions: Homo sapiens, Breast Cancer panel, single dose 10^−5 M, read-out: Growth inhibition %

Row | SMILES | % Inhibition at 10 µM (CCD-966SK) [%] | % Inhibition at 10 µM (HCT-116 [1]) [%] | inhibition at 10 µM (UO-31) [%] | inhibition at 10 µM (SNB-19) [%] | inhibition at 10 µM (OVCAR-4) [%] | inhibition at 10 µM (HT29) [%] | inhibition at 10 µM (MCF7) [%] | inhibition at 10 µM (OVCAR-5) [%] | inhibition at 10 µM (TK-10) [%] | inhibition at 10 µM (MOLT-4) [%] | inhibition at 10 µM (NCI-H460) [%] | inhibition at 10 µM (NCI-H322M) [%] | inhibition at 10 µM (OVCAR-8) [%] | inhibition at 10 µM (HCT-116 [2]) [%] | inhibition at 10 µM (786-0) [%] | inhibition at 10 µM (MDA-MB-468) [%] | inhibition at 10 µM (NCI-H226) [%] | inhibition at 10 µM (HS 578T) [%] | inhibition at 10 µM (BT-549) [%] | inhibition at 10 µM (UACC-62) [%] | other results
1 | Fc1ccc(CNc2c3ccccc3nc3ccccc23)c(F)c1 [Compound 21, Acridin-9-yl-(2,4-difluorobenzyl)-amine] | 30.94 ± 0.86 | 67.37 ± 0.67 | 69.7 | 58.5 | 108 | 78.2 | 89.8 | 48.3 | 39 | 76.2 | 80 | 50.8 | 59.8 | 85.8 | 52.4 | 104 | 45.2 | 24.6 | 17.2 | 40.9 | IC50 (HCT-116 [1]): 3.95 ± 0.82 µM; inhibition at 10 µM (HOP-62): 42.8%; inhibition at 10 µM (EKVX): 54.5%; inhibition at 10 µM (RPMI-8226): 71.7%; inhibition at 10 µM (NCI-H23): 57.2%; inhibition at 10 µM (DU-145): 49.1%; inhibition at 10 µM (PC-3): 31.1%; inhibition at 10 µM (MALME-3M): 30.5%; inhibition at 10 µM (A549/ATCC): 59.9%; inhibition at 10 µM (HL-60(TB)): 41.7%; inhibition at 10 µM (SF-539): 67.6%; inhibition at 10 µM (RXF 393): 65.5%; inhibition at 10 µM (A498): 104%; inhibition at 10 µM (MDA-MB-231/ATCC): 55.6%
2 | c1ccc(CCNc2c3ccccc3nc3ccccc23)cc1 [Compound 23, Acridin-9-yl-phenethyl-amine] | 11.36 ± 7.38 | 40.12 ± 0.11 | 75.8 | 60.5 | 65 | 77.9 | 87.8 | 46.6 | 46.8 | 75.4 | 84.7 | 53.4 | 61.7 | 83.5 | 61.9 | 111 | 43.7 | 26.7 | 26.4 | 46.8 | inhibition at 10 µM (HOP-62): 44.9%; inhibition at 10 µM (EKVX): 63.7%; inhibition at 10 µM (RPMI-8226): 80.5%; inhibition at 10 µM (NCI-H23): 61.4%; inhibition at 10 µM (DU-145): 62%; inhibition at 10 µM (PC-3): 64.3%; inhibition at 10 µM (MALME-3M): 42.9%; inhibition at 10 µM (A549/ATCC): 67.3%; inhibition at 10 µM (HL-60(TB)): 58.7%; inhibition at 10 µM (SF-539): 71.9%; inhibition at 10 µM (RXF 393): 64.7%; inhibition at 10 µM (A498): 105%; inhibition at 10 µM (MDA-MB-231/ATCC): 56.7%
3 | c1csc(-c2ccc(CNc3c4ccccc4nc4ccccc34)cc2)c1 [Compound 24, Acridin-9-yl-(4-thiophen-2-yl-benzyl)-amine] | 47.41 ± 2.48 | 57.14 ± 3.10 | 72 | 53.8 | 84.7 | 147 | 163 | 32.9 | 34.9 | 98 | 87.1 | 49.4 | 44.4 | 183 | 70 | 173 | 31 | 39.4 | 66.3 | 35.5 | IC50 (HCT-116 [1]): 7 ± 0.56 µM; inhibition at 10 µM (HOP-62): 45.4%; inhibition at 10 µM (EKVX): 41%; inhibition at 10 µM (RPMI-8226): 144%; inhibition at 10 µM (NCI-H23): 61.8%; inhibition at 10 µM (DU-145): 38.3%; inhibition at 10 µM (PC-3): 76%; inhibition at 10 µM (MALME-3M): 182%; inhibition at 10 µM (A549/ATCC): 73.3%; inhibition at 10 µM (HL-60(TB)): 157%; inhibition at 10 µM (SF-539): 87.5%; inhibition at 10 µM (RXF 393): 114%; inhibition at 10 µM (A498): 102%; inhibition at 10 µM (MDA-MB-231/ATCC): 61.7%
4 | COc1ccc2nc3ccccc3c(NCc3ccccc3)c2c1 [Compound 25, Benzyl-(2-methoxyacridin-9-yl)-amine] | 44.14 ± 3.80 | 59.62 ± 2.66 | 86.2 | 75.8 | 59.2 | 91.5 | 95.7 | 71 | 61.3 | 92 | 93.7 | 70.5 | 71.8 | 85.2 | 77.7 | 110 | 65.6 | 74.8 | 49.7 | 54.1 | IC50 (HCT-116 [1]): 7.43 ± 0.77 µM; inhibition at 10 µM (HOP-62): 66.4%; inhibition at 10 µM (EKVX): 73.1%; inhibition at 10 µM (RPMI-8226): 131%; inhibition at 10 µM (NCI-H23): 78.5%; inhibition at 10 µM (DU-145): 77.5%; inhibition at 10 µM (PC-3): 71.3%; inhibition at 10 µM (MALME-3M): 77.5%; inhibition at 10 µM (A549/ATCC): 81.8%; inhibition at 10 µM (HL-60(TB)): 91.8%; inhibition at 10 µM (SF-539): 88.2%; inhibition at 10 µM (RXF 393): 94.1%; inhibition at 10 µM (A498): 114%; inhibition at 10 µM (MDA-MB-231/ATCC): 72.2%
5 | COc1ccc2nc3ccccc3c(NCc3ccc(C)cc3)c2c1 [Compound 26, (2-Methoxyacridin-9-yl)-(4-methylbenzyl)-amine] | 46.76 ± 3.21 | 38.11 ± 1.35 | 86.7 | 70.8 | 81.5 | 98.8 | 96.6 | 66 | 53 | 99.7 | 90 | 69.7 | 71.3 | 91.4 | 84.2 | 119 | 57.9 | 57.3 | 48.4 | 44.3 | inhibition at 10 µM (HOP-62): 61%; inhibition at 10 µM (EKVX): 64.8%; inhibition at 10 µM (RPMI-8226): 146%; inhibition at 10 µM (NCI-H23): 71.7%; inhibition at 10 µM (DU-145): 78.4%; inhibition at 10 µM (PC-3): 88.6%; inhibition at 10 µM (MALME-3M): 78%; inhibition at 10 µM (A549/ATCC): 80.7%; inhibition at 10 µM (HL-60(TB)): 100%; inhibition at 10 µM (SF-539): 89.3%; inhibition at 10 µM (RXF 393): 93.8%; inhibition at 10 µM (A498): 102%; inhibition at 10 µM (MDA-MB-231/ATCC): 66.4%
